Tests used:
[1] = target: T1, Adenosylhomocysteinase (Homo sapiens, UniProt P23526); assay: The kinetic constant for inhibition of S-adenosyl-homocysteine hydrolase by the compound
Target sequence in this assay (P23526 whole entry): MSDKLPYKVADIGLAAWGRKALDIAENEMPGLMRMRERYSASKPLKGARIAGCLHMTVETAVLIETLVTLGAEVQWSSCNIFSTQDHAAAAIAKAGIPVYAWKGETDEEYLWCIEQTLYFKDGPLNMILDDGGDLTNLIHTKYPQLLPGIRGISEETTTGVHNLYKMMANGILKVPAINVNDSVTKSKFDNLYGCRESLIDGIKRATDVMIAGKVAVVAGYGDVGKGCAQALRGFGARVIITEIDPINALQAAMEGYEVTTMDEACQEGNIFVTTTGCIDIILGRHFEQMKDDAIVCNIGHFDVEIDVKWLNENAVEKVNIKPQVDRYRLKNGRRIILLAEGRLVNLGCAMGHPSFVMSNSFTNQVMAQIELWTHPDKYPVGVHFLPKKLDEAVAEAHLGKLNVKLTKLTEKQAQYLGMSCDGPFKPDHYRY

[2] = target: T1, Adenosylhomocysteinase; assay: The kinetic constant for inhibition of S-adenosyl-homocysteine hydrolase obtained from human placenta by the compound
Target sequence in this assay (P23526 2-432 limits assumed): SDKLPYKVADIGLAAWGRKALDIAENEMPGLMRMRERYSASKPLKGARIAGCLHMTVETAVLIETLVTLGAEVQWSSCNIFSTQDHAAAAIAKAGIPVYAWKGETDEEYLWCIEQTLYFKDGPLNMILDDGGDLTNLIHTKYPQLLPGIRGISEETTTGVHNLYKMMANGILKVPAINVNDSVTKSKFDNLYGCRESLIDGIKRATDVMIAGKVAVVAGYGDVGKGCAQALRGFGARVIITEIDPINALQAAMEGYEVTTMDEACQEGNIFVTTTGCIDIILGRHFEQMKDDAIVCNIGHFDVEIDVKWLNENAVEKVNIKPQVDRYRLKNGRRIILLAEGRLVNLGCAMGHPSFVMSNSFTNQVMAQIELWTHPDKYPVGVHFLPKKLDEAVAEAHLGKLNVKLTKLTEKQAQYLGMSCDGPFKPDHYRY

[3] = Ratio of Kinact value to that of Ki value

SMILES	Ki [1] [µM]	K inact [2] [min⁻¹]	K inact/Ki [3] [M⁻¹ s⁻¹]
Nc1ncnc2c1ncn2C1O[C@H](/C(Br)=C\Br)[C@@H](O)[C@H]1O (some centres undefined)	3.6	0.081	375
Nc1ncnc2c1ncn2C1O[C@H](C=C(Br)Br)[C@@H](O)[C@H]1O (some centres undefined)	3.1	0.036	193
Nc1ncnc2c1ncn2C1O[C@H](/C=C(/F)Br)[C@@H](O)[C@H]1O (some centres undefined)	3.9	0.04	170

— ChEMBL document CHEMBL1131055, “Discovery of type II (covalent) inactivation of S-adenosyl-L-homocysteine hydrolase involving its "hydrolytic activity": synthesis and evaluation of dihalohomovinyl nucleoside analogues derived from adenosine” (J Med Chem, 1998)
